In paper PMC4226669, “Anti-cancer potency of tasquinimod is enhanced via albumin-binding facilitating increased uptake in the tumor microenvironment” (Oncotarget, 2014):

What was measured:
[1] = Protein binding fraction (PBF) in nude mouse plasma; type: in vitro ADME
Experimental: (§1) Mice were orally gavaged with ^14C-labeled tasquinimod at a dose of 5mg/kg and 1 hour later blood collected and plasma isolated and the PBF determined as described previously using Centrifree® YM-30 centrifuge filter unit with a molecular weight cutoff of 30K (i.e., Millipore, Billerica,MO).

bovine albumin = biological target: T1, bovine albumin (Bos taurus, UniProt P02769); assay: Equilibrium dialysis binding to bovine albumin; conditions: pH 7.4, equilibrium dialysis, read-out: equilibrium dissociation constant (Kd)
T1 construct: purchased Sigma
T1 sequence (P02769 25-607): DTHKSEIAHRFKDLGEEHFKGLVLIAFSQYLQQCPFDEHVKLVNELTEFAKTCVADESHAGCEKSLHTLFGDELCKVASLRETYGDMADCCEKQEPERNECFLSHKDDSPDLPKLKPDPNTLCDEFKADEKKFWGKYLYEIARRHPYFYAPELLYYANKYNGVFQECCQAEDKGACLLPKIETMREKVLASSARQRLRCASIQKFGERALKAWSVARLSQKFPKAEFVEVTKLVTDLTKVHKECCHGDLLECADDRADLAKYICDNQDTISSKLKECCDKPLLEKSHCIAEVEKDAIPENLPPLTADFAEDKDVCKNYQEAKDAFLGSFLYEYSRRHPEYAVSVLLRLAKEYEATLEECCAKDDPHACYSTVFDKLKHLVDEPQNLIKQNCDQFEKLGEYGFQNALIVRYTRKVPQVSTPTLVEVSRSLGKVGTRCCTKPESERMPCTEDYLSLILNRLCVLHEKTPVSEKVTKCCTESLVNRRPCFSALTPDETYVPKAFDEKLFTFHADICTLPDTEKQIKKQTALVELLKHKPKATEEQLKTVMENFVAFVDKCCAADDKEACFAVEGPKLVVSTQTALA
Experimental: To determine whether albumin is the tasquinimod binding protein in plasma, albumin was removed from human plasma using an albumin depletion kit (Thermo Scientific cat # 85160). The albumin depleted plasma was then tested for its protein binding as described above. The dissociation constant (kd) for tasquinimod binding was determined based upon equilibrium dialysis of a mixture of 4mg/ml of the species (i.e., human, bovine, and mouse) specific albumin obtained from Sigma with 2μM of ^14C-labeled tasquinimod in PBS pH 7.4 buffer using a 96-well equilibrium dialyzer™ (Harvard Apparatus, Holliston,MA).

[2] = Protein binding fraction (PBF) in human plasma; type: in vitro ADME; conditions: 1-50 μM radiolabeled tasquinimod
Experimental: An explanation for this highly restricted cellular uptake in the blood is provided by the fact that protein binding fraction (PBF) for tasquinimod in nude mouse plasma is 98 ± 1%. This is not a nude mouse specific effect since incubation of 1-50 μM radiolabeled tasquinimod with human plasma or bovine fetal serum (FBS) results in a PBF of ~ 98%.
as §1

Question: Which results are given for COc1cccc2c1c(O)c(C(=O)N(C)c1ccc(C(F)(F)F)cc1)c(=O)n2C [Tasquinimod]?
Answer: plasma tasquinimod that is albumin bound [1]: 98%; total plasma tasquinimod that is non-protein bound ([1]; following oral dosing): ~ 2%; fraction unbound at 1 h ([1]; oral, 5 mg/kg, nude mouse plasma): 0.02; Kd (bovine albumin): 31 ± 6 µM; fraction unbound [2]: ~0.02
